Our source for the melting point values is a melting point compilation (Tetko et al.; mined from patent text by program, amines drawn as free bases though some values may be those of a salt).

Bounds are passed on as bounds.

`C=Cc1cc(CCNc2ncnc3c(F)ccc(F)c23)ccc1Oc1cc(C(F)(F)F)ccn1` had a melting point of 86 °C.
The figure for `Cc1ccc(S(=O)(=O)NC(COS(=O)(=O)c2ccc(C)cc2)Cc2ccccc2)cc1` (configuration not stated) is 95 to 96 °C; for `CCC(CC)N(Cc1ccc(C(=O)O)cc1)S(=O)(=O)c1ccc(OC)cc1` it is 86 to 87 °C.
The figure for `COc1ccc(-c2nc(-c3cccn3CC(=O)OC(C)C(C)C)sc2-c2ccc(OC)cc2)cc1` (configuration not stated) is 88.5 to 91.5 °C; for `COC(=O)c1ccc(C(=O)c2ccccc2)[nH]1` it is 111 to 113 °C; for `Cc1nc(N2CCN(CC3CC3)C2=O)sc1C(=O)NCc1ccccn1` it is 148 to 151 °C.
In turn, `C=C1c2cccc(NC(=O)c3c(Cl)cccc3Cl)c2OC1(C)OC` (configuration not stated) gave a melting point of 208 to 210 °C.
Consider `CS(=O)(=O)c1cc(S(F)(F)(F)(F)F)ccc1C(=O)c1cnoc1C1CC1`, for which the melting point lay in the range of 168 to 170 °C.
In turn, `CC(C)(C)c1cc(-n2nc3ccc(S(=O)c4ccccc4)cc3n2)c(O)c(C(C)(C)C)c1` (configuration not stated) displayed a melting point of 152 to 154 °C.
`CCn1c(COCc2ccccc2)nc(C(C)C)c1Sc1cccc([N+](=O)[O-])c1` returned a melting point of 121 to 123 °C.
`COc1ccccc1NC(=O)Nc1nc(Nc2ccccc2-c2ccccc2)nc(N(CCC(=O)O)Cc2ccc(F)c(F)c2)n1`: the melting point lay in the range of 115 to 120 °C.
For `N#Cc1cc2nc(O)c(O)nc2cc1C(F)(F)F` the value was more than 300 °C; for `Nc1c(C(=O)CCC(=O)O)cccc1C(=O)c1ccc(Cl)cc1`, 172 to 177 °C.
The figure for `CCOC(=O)N(NC(N)=O)c1ccc(CC[Si](OCC)(OCC)OCC)cc1` is 123 to 124 °C; for `CCc1oc2ccc(Cl)cc2c1C(=O)c1cc(Br)c(O)c(Br)c1` it is 126 to 128 °C.
For `CC(C)(C)OC(=O)C1(Cl)OC1c1ccc([N+](=O)[O-])cc1` (configuration not stated), the melting point was found to be 60 °C.
The figure for `Cc1ccc(O)c(NCCCN2CCN(C(c3ccccc3)c3ccccc3)CC2)c1` is 178 to 179 °C; for `Cn1nc(-c2ccc(F)cc2)c(-c2ccncc2)c1CC(=O)Cc1ccccc1` it is 148 to 151 °C.
The figure for `CCCNC(=O)Oc1ccc(C(O)(CC)c2ccc(F)cc2)cc1` (configuration not stated) is 107 to 108 °C; for `Cc1cccnc1-n1c(S(=O)Cc2ccccc2N(C)C)nc2c1CCC2` (configuration not stated) it is 119 to 120 °C; for `CCOC(=O)c1cc2ccc([Si](C)(C)C)cc2n1Cc1cccc(F)c1` it is 87 to 88 °C.
For `CCCCCCCCCCOc1ccc(-c2ccc(CCCCC(C)OC(C)=O)cc2)cc1` (configuration not stated) the value was 75 to 76 °C.
`CC(CS)C(=O)NC(CC(N)=O)C(=O)O` (configuration not stated): the melting point was determined as 181 °C.
Consider `CCOC(=O)Nc1ccc(N(CC)CC)cc1`, for which the melting point was 31 to 33 °C.
The figure for `COc1ccc2c(c1)c(-c1cc3cc(-c4ccccc4)cnc3[nH]1)cn2C` is 240 to 242 °C; for `CCNC1CC=C(c2c[nH]c3ccc([N+](=O)[O-])cc23)CC1` (configuration not stated) it is 177 to 179 °C.
For `CC(C)(C)Oc1cccc(C[C@@H](C(=O)O)[C@@H](O)c2ccc(F)cc2)c1` (racemic) the value was 131 to 132 °C; for `NCCOC(=C1C2CC3CC(C2)CC1C3)c1cccc(O)c1`, 55 °C.
On to `COC(=O)c1cc(-c2ccc(OC)c(Cl)c2)nn(CC=Cc2ccc(Cl)cc2)c1=O`, for which the melting point is 180 to 182 °C.
For `O=C=Nc1ccc(OCc2nc(Cl)ccc2Cl)cc1` the value was 61.5 to 62.5 °C; for `COc1cc(C(C)C)c2c(c1)S(=O)(=O)N(COC(=O)c1cc(C)no1)C2=O`, 157 to 158 °C.
The figure for `CC(C)(C)c1csc(C(C#N)=C(O)c2c(F)cccc2F)n1` is 207 to 209 °C.
The figure for `O=C1Nc2cccnc2N(C(=O)NCCN2CCC(CN3CCCCC3)C2)c2ccccc21` (configuration not stated) is 168 to 169 °C; for `CC1Cc2ccc(Cl)cc2C(c2ccc([N+](=O)[O-])cc2)O1` (configuration not stated) it is 120 to 123 °C; for `C=CCOC(=O)COc1cccc(NC(=O)NCNC(=O)c2ccccc2C(=O)c2ccccc2)c1` it is 147 to 149 °C.
The compound `CC(C)=NOc1nc(C(F)(F)F)cc(=O)n1-c1cc(Oc2ccccc2[N+](=O)[O-])c(Cl)cc1F` yielded a melting point of 156 to 159 °C.
For `CCCC1=C(C#N)C(c2ccccc2Cl)c2c(n[nH]c2CC(OC)OC)N1` (configuration not stated) the value was 180 °C; for `CO/C=C(/C(=O)OC)c1ccccc1Oc1ncnc(Cl)n1`, 137 to 140 °C.
For `O=C(CBr)c1cc(O)c(O)c([N+](=O)[O-])c1` the value was 138 to 140 °C; for `CCN(C1CCN(Cc2ccccc2)C1)S(=O)(=O)c1ccc(Nc2nccc(Nc3ccc(F)cc3)n2)cc1` (configuration not stated), 125 to 127 °C; for `N#Cc1c(N2CCc3ccccc3CC2)nc(CO)n(CC(F)(F)F)c1=O`, 181 to 185 °C.
The figure for `CCOP(=O)(OCC)C(Nc1ccccn1)P(=O)(OCC)OCC` is 63 to 66 °C; for `CC(=O)C(=NNc1ccccc1)C(=O)N(C(C)C)C(C)C` it is 143 to 145 °C.
For the compound `OCC#Cc1cccc2ccncc12`, the melting point fell in the range of 138 to 139 °C.
For `COC(=O)c1cccc2c3nc4ccccc4[nH]c-3nc12` the value was 251 to 255 °C; for `Cc1ccc(/C=C/c2nc(COc3ccc(CCCCn4ccnc4CCO)cc3)co2)cc1`, 108 to 109 °C.
For `Cc1cc2c(c(C)c1NC(=O)OC(C)(C)C)CC(C)(C)O2` the value was 121 to 123 °C; for `COC(=O)c1ccc2c(c1)c(=O)cc(-c1ccccc1)n2C`, 174 to 176 °C; for `Cc1oc(-c2ccccc2)nc1COc1cccc(COc2cc(CCC(=O)O)n(-c3ccccc3)n2)c1`, 137 to 138 °C.
In turn, `CC(C)(C)C1(COc2ccc(Cl)cc2)OS(=O)NC1=O` (configuration not stated) had a melting point of 132 to 134 °C.
For `O=C(Nc1ccc([N+](=O)[O-])cc1Cl)OCCCl` the value was 128 to 130 °C.
For `CC(O)(c1nc2ccc(S(=O)(=O)c3ccccc3)cc2[nH]1)C(F)(F)F` (configuration not stated) the value was 115 to 117 °C; for `CC(C)(C)c1cc(C(=O)c2c[nH]c(SC#N)c2SC#N)cc(C(C)(C)C)c1O`, 143 to 144 °C.
As to `NS(=O)(=O)c1cccc(NC(=O)c2cnn3ccc(-c4ccc(C(F)(F)F)cc4)nc23)c1`, the melting point was 318 to 320 °C.
For `COC(=O)C1=C(C(=O)OC)C2(c3ccc(Cl)cc3Cl)CCC1O2` (configuration not stated) the value was 78 °C; for `Cc1ccccc1CCOCC(=O)O`, 47 to 48 °C; for `CN(C)C=C1C(=O)N(c2cccc(O)c2)c2ccccc21`, 200 to 203 °C.
The figure for `CCCCCCCCCCCCCCCCCC(=O)N[C@@H](C)C(=O)O` is 102 °C; for `O=c1[nH]c2ccc(Cl)cc2n1CCN1CCCCC1` it is 156 to 158 °C; for `CC(=O)Nc1cc(C(C)(C)CC(C)(C)C)ccc1O` it is 176 to 177 °C.
For `Cc1cccc(N2CCN(c3ccc(Br)nn3)CC2)c1` the value was 146 °C; for `CC(C)OC(=O)c1cc(N)c(F)c(F)n1`, 167 to 168 °C.

One may read the melting point as the temperature of the solid-liquid transition.
